Measurements reported in a polymer gas permeability compilation.

| Structure (SMILES) | CH4 permeability [Barrer] | CO2 permeability [Barrer] | H2 permeability [Barrer] | N2 permeability [Barrer] | O2 permeability [Barrer] |
| --- | --- | --- | --- | --- | --- |
| *CC(*)Cl (repeat unit) | 0.0263 | 0.16 | 1.79 | 0.0109 | 0.0453 |
| *C(=O)n1c(*)nc2cc3nc4c5ccc(*)c6c(*)ccc(c(=O)n4c3cc21)c65 (repeat unit) | 0.0017 | 0.12 |  | 0.00259 | 0.021 |
| *CN1CN(*)Cc2cc3c(cc21)C1c2ccccc2C3c2cc(*)c(*)cc21 (repeat unit) | 562 | 6830 | 6390 | 409 | 1900 |
| *c1c(C)cc(-c2cc(C)c(-c3cc(C)c(*)c(C)c3)cc2C)cc1C (repeat unit) | 15 | 360 | 350 | 16.5 | 67 |
| *c1ccc(-c2cc(C)c(-c3ccc(*)c(C)c3)cc2C)cc1C (repeat unit) | 1.1 |  | 51 | 1.6 | 8.6 |
| *C/C(C)=C(\C)C* (repeat unit) | 0.786 | 7.47 | 17 | 0.472 | 2.1 |
| *CC(*)[Si](C)(C)c1ccccc1 (repeat unit) |  | 12.3 |  | 0.45 | 2.47 |

Other lines, results leading:

| CH4 permeability [Barrer] | CO2 permeability [Barrer] | H2 permeability [Barrer] | N2 permeability [Barrer] | O2 permeability [Barrer] | Structure (SMILES) |
| --- | --- | --- | --- | --- | --- |
| 0.41 | 25.9 | 36.8 | 0.78 | 4.89 | *c1ccc(Oc2ccc3ccccc3c2-c2c(Oc3ccc(N4C(=O)c5ccc(C(c6ccc7c(c6)C(=O)N(*)C7=O)(C(F)(F)F)C(F)(F)F)cc5C4=O)cc3C(F)(F)F)ccc3ccccc23)c(C(F)(F)F)c1 (repeat unit) |
| 810 | 3200 | 1400 | 400 | 660 | *C(=C(*)c1ccc2c(c1)C1(CC1)c1ccccc1-2)c1ccccc1 (repeat unit) |
| 230 | 4300 | 3420 | 208 | 901 | *c1c(C)cc(-c2cc(C)c(N3C(=O)c4cc5c(cc4C3=O)C3(C)CCC5(C)c4cc5c(cc43)C(=O)N(*)C5=O)c3ccccc23)c2ccccc12 (repeat unit) |
| 0.0393 | 1.4 |  | 0.0569 | 0.41 | *Oc1ccc(S(=O)(=O)c2ccc(Oc3ccc(C4(c5ccc(*)c(C)c5)CCCCC4)cc3C)cc2)cc1 (repeat unit) |
| 0.064 | 2.75 | 9.4 | 0.105 | 0.6 | *c1ccc(N2C(=O)c3ccc([Si](C)(C)c4ccc5c(c4)C(=O)N(*)C5=O)cc3C2=O)cc1 (repeat unit) |
|  |  | 54.9 | 0.81 | 5.04 | *c1ccc2c(c1)C(=O)n1c-2nc2ccc(Oc3ccc4c(c3)nc3n4C(=O)c4ccc(C(*)(C(F)(F)F)C(F)(F)F)cc4-3)cc21 (repeat unit) |
| 20 | 420 | 300 | 16 | 64 | *c1ccc(-c2ccc(-n3c(=O)c4cc5oc6cc7c(cc6oc5cc4c3=O)C3(CC(C)(C)c4cc5oc6cc8c(=O)n(*)c(=O)c8cc6oc5cc43)CC7(C)C)cc2C(F)(F)F)c(C(F)(F)F)c1 (repeat unit) |
|  |  | 5.62 | 0.028 | 0.261 | *c1ccc(Cc2ccc(N3C(=O)c4ccc(Oc5ccc6c(c5)C(=O)N(*)C6=O)cc4C3=O)cc2)cc1 (repeat unit) |
| 1.51 | 36.6 |  | 3.11 | 17.1 | *c1ccc(Oc2ccc(-c3ccc(-c4ccc(-c5ccc(Oc6ccc(N7C(=O)c8ccc(C(c9ccc%10c(c9)C(=O)N(*)C%10=O)(C(F)(F)F)C(F)(F)F)cc8C7=O)cc6)c(C(F)(F)F)c5)cc4)cc3)cc2C(F)(F)F)cc1 (repeat unit) |
